Several values for one entry are separate records, joined by “and”; a condition that tells them apart may be missing. Equal entries are not always repeated.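 Assay format: 96-well plates, 48-hour exposure. GI50 marks 50% less growth. The concentration for full growth arrest is given as TGI.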

Assay in all cases: growth of human tumour cells (NCI), 48 h
Test [1] has as its system NCI-H522 lung.
In test [2] the test system is TK-10 renal.
Test [3] deals with A549 NSCLC.
Test [4] has as its system MDA-MB-231 breast.
In test [5] the test system is HS 578T breast.
The subject of test [6] is MCF7 breast.
For test [7], the system named is BT-549 breast.
Test [8] deals with SNB-19 CNS.
The subject of test [9] is SN12C renal.
Test [10] deals with K-562 leukemia.

Take `C/C(Cc1ccc(Cl)cc1)=C(/c1ccc(Cl)cc1)c1ccc(OCCN(C)C)cc1`: the GI50 is 5.31 µM in test [1]; 5.1 µM in test [2]; 4.52 µM in test [3]; 4.27 µM in test [4]; 4.72 µM in test [5]; 1.7 µM in test [6]. Besides, the GI50 was 4.95 µM in test [7], 5.04 µM in test [8], 4.18 µM in [9] and 0.981 µM in test [10]. The TGI stood at 11.4 µM in [1]; 10.8 µM in test [2]; 10.3 µM in [3]; 8.71 µM in test [4]; 11 µM in test [5]; 6.31 µM in [6]. In addition, the TGI in [7] is 10 µM; in test [8], 9.62 µM; in test [9], 8.59 µM; in test [10] it was 5.83 µM.

Turning to `COc1ccc(Cn2cc3c(c2-c2cc(OC)c(OC)c(OC)c2)CCc2cnoc2-3)cc1[N+](=O)[O-]`, the GI50 in test [1] is 0.294 µM; in test [2], 3.57 µM; in [3], 1 µM; in test [4] it was 2.13 µM; in [5], 1.13 µM; in test [6], 0.454 µM. Besides, the GI50 was 7.9 µM in test [7], 1.87 µM in test [8], 4.11 µM in [9] and 0.358 µM in [10]. In addition, the TGI in test [1] is 1.64 µM; in test [2] it was over 84.3 µM; in [3] it was over 100 µM; in test [4], over 41.2 µM; in test [6], over 100 µM; in test [7], over 100 µM. For the same molecule, the TGI in test [8], in test [9] and in [10] was over 100 µM each time.

Consider `CCc1nc(Cl)nc(Cl)c1Cl`, for which the TGI in [1] stood at 0.234 µM; in [2], 21.2 µM; in [3], 9.56 µM; in [4], 13.1 µM; in test [5], 9.39 µM; in [6], 5.56 µM. For the same molecule, the TGI in [7] came to 14.6 µM; in test [8], 11.3 µM; in test [9] it was 6.69 µM; in test [10] it was 3.62 µM.

On to `COc1ccccc1S(=O)(=O)Nc1ccc2c(c1)CN(C)C(=O)N2`, for which the GI50 in test [1] is 2.34 µM and 4.75 µM; in test [2], 2.14 µM and 1.45 µM; in test [3], 9.07 µM and 22.2 µM; in test [4], 4.28 µM and 7.34 µM; in test [5], 2.53 µM and 2.23 µM; in test [6], 1.87 µM and 1.48 µM. Further, the GI50 in test [7] was 9.98 µM and 26.3 µM; in [8], 7.3 µM and 5.07 µM; in [9], 11 µM and 7.5 µM; in [10], 8.64 µM and 5.18 µM. The TGI was over 91.7 µM in test [1]; > 95.5 µM and 50 µM in test [2]; over 100 µM in [3]; over 100 µM in test [4]; over 100 µM in test [5]; over 100 µM in test [6]. The TGI in test [7], in [8], in [9] and in [10] was over 100 µM throughout.

As for `Cn1c(=S)c2[nH]c(SCCN3CCCC3)nc2n(C)c1=O`, the TGI in test [1], in [2], in test [3], in test [4], in [5] and in test [6] was over 100 µM each time. Also, the TGI in [7], in test [8], in test [9] and in test [10] was over 100 µM in each case.

With `COc1ccc(C(=O)c2cc3c(N)c(C(=O)Nc4cccc(Cl)c4C)sc3nc2C)cc1`, the GI50 was 0.0623 µM in [1]; over 25 µM in test [2]; 0.136 µM in test [3]; 0.142 µM in test [4]; 0.0832 µM in [5]; 0.0932 µM in [6]. Further, the GI50 in [7] was 0.25 µM; in [8], 0.117 µM; in test [9], 0.155 µM; in test [10] it was 0.0901 µM. For the same molecule, the TGI is over 6.78 µM in [1]; over 25 µM in test [2]; over 25 µM in test [3]; over 25 µM in [4]; over 25 µM in test [5]; over 25 µM in test [6]. The TGI in [7], in test [8], in test [9] and in test [10] was over 25 µM throughout.

For the molecule `O=C1c2c(O)cc(O)cc2OC(c2ccc(O)cc2O)C1O` (stereo not drawn), the GI50 in test [1], in [8], in test [9] and in [10] was over 100 µM in each case. The TGI in [1], in test [2], in [3], in test [4], in [5] and in [6] was over 100 µM in each case. In addition, the TGI in test [7], in test [8], in test [9] and in test [10] was over 100 µM in each case.

Consider `C#CCOc1cccc(Nc2ncnc3ccc(NC(=O)CCl)cc23)c1`, for which the GI50 in test [1] is 0.777 µM; in test [2], 2.06 µM; in [3], 0.225 µM; in [4], 1.07 µM; in test [5], 4.12 µM; in test [6], 0.428 µM. Besides, the GI50 in [7] was 1.66 µM; in test [8], 1.88 µM; in test [9], 0.3 µM; in test [10], 0.117 µM. Further, the TGI in [1] is 3.97 µM; in test [2], 18.1 µM; in test [3], over 44 µM; in test [4], 30.8 µM; in test [5], over 100 µM; in [6], 14.4 µM. Besides, the TGI in test [7] is 10.1 µM; in [8], 81.9 µM; in [9], over 79.8 µM; in test [10], over 100 µM.

Source of the values: PubChem BioAssay (NCI).
